# Results published in the NIST ThermoML archive (doi:10.1021/je800646h).
# Numbers after ± are expanded uncertainties.
# Conditions: Crystal; DTA
structure (smiles),measurement,value
"Nc1ccc(O)c2c1C(=O)c1c(O)cc(Br)c(N)c1C2=O [1,5-diaminobromo-4,8-dihydroxyanthraquinone]",Triple point temperature,453.4 ± 1.1 K
